{"source": "patent US7402323B2", "about": "“Compositions and methods for treating skin conditions” (AkPharma, Inc., priority 2002, dated 2008)", "origin": "cited, not measured here", "key": {"stratum corneum": {"system": "stratum corneum", "settings": "normal thickness 14 cells"}, "[1]": {"system": "cultured neurons and astrocytes", "settings": "compared with control cultures or with cultures supplemented with calcium or glycerophosphate alone"}}}
{"smiles": "CC1=C(/C=C/C(C)=C/C=C/C(C)=C/C(=O)O)C(C)(C)CCC1", "note": "[Retinoic acid]", "values": [{"measurement": "stratum corneum thickness after treatment", "setting": "stratum corneum", "value": 5, "unit": "cells"}]}
{"smiles": "O=P([O-])([O-])OCC(O)CO.[Ca+2]", "note": "(stereo not drawn) [calcium glycerophosphate, 1,2,3-propanetriol, mono(dihydrogen phosphate) calcium salt (1:1)]", "values": [{"measurement": "number of cells in supplemented cultures", "setting": "[1]", "value": "more cells"}, {"measurement": "solubility in water", "value": "highly soluble"}]}
